Reference: PubChem BioAssay (NCI)
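GI50 = concentration required for 50% inhibition of growth. Definition used: TGI = concentration required for complete inhibition of growth.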

Experiments:
Assay in all cases: DTP human tumour cell line panel, 384-well format
[1] = test system: T-47D breast
[2] = test system: SF-539 CNS
[3] = test system: IGROV1 ovarian
[4] = test system: SF-295 CNS
[5] = test system: HS 578T breast
[6] = test system: HL-60(TB) leukemia
[7] = test system: NCI-H460 NSCLC
[8] = test system: DU-145 prostate
[9] = test system: SNB-19 CNS
[10] = test system: SR leukemia
[11] = test system: SNB-75 CNS
[12] = test system: HCT-116 colon
[13] = test system: MALME-3M melanoma
[14] = test system: CCRF-CEM leukemia
[15] = test system: EKVX NSCLC
[16] = test system: SK-MEL-5 melanoma
[17] = test system: OVCAR-8 ovarian
[18] = test system: HOP-62 NSCLC
[19] = test system: ACHN renal
[20] = test system: CAKI-1 renal
[21] = test system: PC-3 prostate
[22] = test system: HCC-2998 colon
[23] = test system: NCI-H522 lung
[24] = test system: SK-OV-3 ovarian
[25] = test system: K-562 leukemia
[26] = test system: SK-MEL-28 melanoma
[27] = test system: BT-549 breast
[28] = test system: MDA-MB-231 breast
[29] = test system: NCI/ADR-RES ovarian
[30] = test system: OVCAR-4 ovarian
[31] = test system: U251 glioblastoma
[32] = test system: LOX IMVI melanoma
[33] = test system: UO-31 renal
[34] = test system: UACC-62 melanoma
[35] = test system: RPMI-8226 leukemia
[36] = test system: HOP-92 NSCLC
[37] = test system: MDA-MB-435 melanoma
[38] = test system: KM12 colon
[39] = test system: M14 melanoma
[40] = test system: SN12C renal
[41] = test system: MCF7 breast
[42] = test system: A498 renal
[43] = test system: NCI-H226 lung
[44] = test system: OVCAR-3 ovarian
[45] = test system: TK-10 renal
[46] = test system: NCI-H23 lung
[47] = test system: UACC-257 melanoma
[48] = test system: NCI-H322M lung
[49] = test system: SW-620 colon
[50] = test system: 786-0 renal
[51] = test system: HT29 colon
[52] = test system: MDA-MB-468 breast
[53] = test system: COLO 205 colon
[54] = test system: A549 NSCLC
[55] = test system: RXF 393 renal
[56] = test system: MOLT-4 leukemia
[57] = test system: SF-268 CNS
[58] = test system: HCT-15 colon

Compound: Cc1ccccc1C(C(=O)NC1CCCCC1)N(C(=O)Cn1ccnc1C)c1cccc(F)c1 (stereo unspecified)
- GI50 [1]: 24.5 µM
- TGI [1]: > 100 µM
- GI50 [2]: 36.2 µM
- TGI [2]: > 100 µM
- GI50 [3]: > 100 µM
- TGI [3]: > 100 µM
- GI50 [4]: 30 µM
- TGI [4]: > 100 µM
- GI50 [5]: 27.4 µM
- TGI [5]: 83 µM
- GI50 [6]: > 100 µM
- TGI [6]: > 100 µM
- GI50 [7]: > 100 µM
- TGI [7]: > 100 µM
- GI50 [8]: > 100 µM
- TGI [8]: > 100 µM
- GI50 [9]: > 100 µM
- TGI [9]: > 100 µM
- GI50 [10]: 20 µM
- TGI [10]: 86.6 µM
- GI50 [11]: 26.8 µM
- TGI [11]: > 100 µM
- GI50 [12]: > 100 µM
- TGI [12]: > 100 µM
- GI50 [13]: > 100 µM
- TGI [13]: > 100 µM
- GI50 [14]: > 100 µM
- TGI [14]: > 100 µM
- GI50 [15]: > 100 µM
- TGI [15]: > 100 µM
- GI50 [16]: > 100 µM
- TGI [16]: > 100 µM
- GI50 [17]: 75.6 µM
- TGI [17]: > 100 µM
- GI50 [18]: > 100 µM
- TGI [18]: > 100 µM
- GI50 [19]: > 100 µM
- TGI [19]: > 100 µM
- GI50 [20]: > 100 µM
- TGI [20]: > 100 µM
- GI50 [21]: > 100 µM
- TGI [21]: > 100 µM
- GI50 [22]: > 100 µM
- TGI [22]: > 100 µM
- GI50 [23]: > 100 µM
- TGI [23]: > 100 µM
- GI50 [24]: > 100 µM
- TGI [24]: > 100 µM
- GI50 [25]: > 100 µM
- TGI [25]: > 100 µM
- GI50 [26]: > 100 µM
- TGI [26]: > 100 µM
- GI50 [27]: > 100 µM
- TGI [27]: > 100 µM
- GI50 [28]: 51.1 µM
- TGI [28]: > 100 µM
- GI50 [29]: > 100 µM
- TGI [29]: > 100 µM
- GI50 [30]: > 100 µM
- TGI [30]: > 100 µM
- GI50 [31]: > 100 µM
- TGI [31]: > 100 µM
- GI50 [32]: 52.7 µM
- TGI [32]: > 100 µM
- GI50 [33]: > 100 µM
- TGI [33]: > 100 µM
- GI50 [34]: > 100 µM
- TGI [34]: > 100 µM
- GI50 [35]: > 100 µM
- TGI [35]: > 100 µM
- GI50 [36]: 77.4 µM
- TGI [36]: > 100 µM
- GI50 [37]: > 100 µM
- TGI [37]: > 100 µM
- GI50 [38]: > 100 µM
- TGI [38]: > 100 µM
- GI50 [39]: > 100 µM
- TGI [39]: > 100 µM
- GI50 [40]: > 100 µM
- TGI [40]: > 100 µM
- GI50 [41]: > 100 µM
- TGI [41]: > 100 µM
- GI50 [42]: 66.6 µM
- TGI [42]: > 100 µM
- GI50 [43]: > 100 µM
- TGI [43]: > 100 µM
- GI50 [44]: > 100 µM
- TGI [44]: > 100 µM
- GI50 [45]: 49.2 µM
- TGI [45]: > 100 µM
- GI50 [46]: > 100 µM
- TGI [46]: > 100 µM
- GI50 [47]: > 100 µM
- TGI [47]: > 100 µM
- GI50 [48]: > 100 µM
- TGI [48]: > 100 µM
- GI50 [49]: > 100 µM
- TGI [49]: > 100 µM
- GI50 [50]: > 100 µM
- TGI [50]: > 100 µM
- GI50 [51]: > 100 µM
- TGI [51]: > 100 µM
- GI50 [52]: > 100 µM
- TGI [52]: > 100 µM
- GI50 [53]: > 100 µM
- TGI [53]: > 100 µM
- GI50 [54]: > 100 µM
- TGI [54]: > 100 µM
- GI50 [55]: 20.5 µM
- TGI [55]: 96.6 µM
- GI50 [56]: > 100 µM
- TGI [56]: > 100 µM
- GI50 [57]: > 100 µM
- TGI [57]: > 100 µM
- GI50 [58]: > 100 µM
- TGI [58]: > 100 µM
